The test system of experiment [1] is Candida albicans. As to the kind of experiment: Antibiofilm activity against Candida albicans CAF2-1 after 48 hrs by XTT assay. Format: functional. Particulars: CAF2-1, 48 h. For orientation: Tetrazolium dyes change colour on reduction, which living cells bring about.
Experiment [2] concerns Candida albicans. In words: Antifungal activity against Candida albicans CAF2-1 after 24 hrs by spectrophotometry based broth dilution assay. Type of experiment: functional. Particulars: CAF2-1, 24 h. Background: Dilution methods test growth across graded concentrations, often in twofold steps.
Experiment [3] concerns Candida albicans. As to the kind of experiment: Antifungal activity against hypersusceptible Candida albicans DSY2621 mutant after overnight incubation by MTT based bioautography method. Type of experiment: functional.
The test system of experiment [4] is Candida albicans. In words: Antifungal activity against Candida albicans CAF2-1 after overnight incubation by MTT based bioautography method. Format: functional.
Experiment [5] concerns Candida albicans. As to the kind of experiment: Induction of ultrastructural changes in Candida albicans CAF2-1 assessed as retraction of cytoplasm at 16 ug/ml after 18 hrs by uranyl acetate/lead citrate staining based transmission electron microscopy. Type of experiment: functional, organism-based.
The test system of experiment [6] is Candida albicans. As to the kind of experiment: Induction of ultrastructural changes in Candida albicans CAF2-1 assessed as cytoplasmic content dis-organization with disappearance of mitochondria at 16 ug/ml after 18 hrs by uranyl acetate/lead citrate staining based transmission electron microscopy. Format: functional, organism-based.
Experiment [7] concerns Candida albicans. As to the kind of experiment: Induction of ultrastructural changes in Candida albicans CAF2-1 assessed as cytoplasmic content dis-organization with disappearance of golgi apparatus at 16 ug/ml after 18 hrs by uranyl acetate/lead citrate staining based transmission electron microscopy. Format: functional, organism-based.
Experiment [8] relates to Candida albicans. In words: Induction of ultrastructural changes in Candida albicans CAF2-1 assessed as cytoplasmic content dis-organization at 16 ug/ml after 18 hrs by uranyl acetate/lead citrate staining based transmission electron microscopy. Type of experiment: functional, organism-based.
In experiment [9] the test system is Candida albicans. As to the kind of experiment: Induction of ultrastructural changes in Candida albicans CAF2-1 assessed as reduction in budding initiation at 16 ug/ml after 18 hrs by uranyl acetate/lead citrate staining based transmission electron microscopy. Format: functional, organism-based.
In experiment [10] the test system is Candida albicans. In words: Induction of ultrastructural changes in Candida albicans CAF2-1 assessed as cytoplasmic content dis-organization with disappearance of ribosomes at 16 ug/ml after 18 hrs by uranyl acetate/lead citrate staining based transmission electron microscopy. Format: functional, organism-based.
Experiment [11] relates to Candida albicans. As to the kind of experiment: Induction of ultrastructural changes in Candida albicans CAF2-1 assessed as breakage zones of plasma membrane at 16 ug/ml after 18 hrs by uranyl acetate/lead citrate staining based transmission electron microscopy. Format: functional, organism-based.
The test system of experiment [12] is Candida albicans. As to the kind of experiment: Induction of ultrastructural changes in Candida albicans CAF2-1 assessed as disorganization and disruption of nuclear membrane at 16 ug/ml after 18 hrs by uranyl acetate/lead citrate staining based transmission electron microscopy. Format: functional, organism-based.

≈ marks a conversion by molar mass, not a printed value. Calls of active or inactive are those of the source. No cut-off for these calls is given here.

Take `COc1c(O)c2c(c3c1[C@@H](CO)OC3=O)CC[C@H]1[C@@H]3C[C@@H]3CC[C@]21C`: the MIC with Candida albicans [1] is 50 µg/mL (≈ 145 µM); in the experiment on Candida albicans [2], > 32 µg/mL.
As for `CC1(C)CCC[C@]2(C)c3c(O)c(O)c4c(c3CC[C@@H]12)C(=O)OCC4`, the MIC is 50 µg/mL (≈ 151 µM) against Candida albicans [1], 8 µg in the experiment on Candida albicans [3], > 32 µg/mL against Candida albicans [2] and >50 µg in the experiment on Candida albicans [4].
For `CC1(C)CCC[C@]2(C)c3c(O)c(O)c4c(c3CC[C@@H]12)C(=O)O[C@H]4CO`, the MIC against Candida albicans [1] is 25 µg/mL (≈ 72.2 µM); against Candida albicans [3] it was 8 µg; against Candida albicans [2], 32 µg/mL (≈ 92.4 µM); against Candida albicans [4], >50 µg. The result in the experiment on Candida albicans [5], in the experiment with Candida albicans [6], with Candida albicans [7], with Candida albicans [8], in the experiment with Candida albicans [9] and in the experiment with Candida albicans [10] was Active. For the same molecule, the outcome in the experiment on Candida albicans [11] and in the experiment with Candida albicans [12] was Active.
In the case of `Clc1ccc(COC(Cn2ccnc2)c2ccc(Cl)cc2Cl)c(Cl)c1` (stereo not given) [MICONAZOLE], the MIC with Candida albicans [3] came out at 0.0006 µg; against Candida albicans [2], 0.0156 µg/mL (≈ 0.0375 µM); against Candida albicans [4] it was 0.005 µg.
In the case of `COc1c(O)c2c(c3c1[C@@H](CO)OC3=O)CC[C@H]1C(C)(C)CCC[C@]21C`, the MIC with Candida albicans [1] is > 50 µg/mL; against Candida albicans [3], 20 µg; against Candida albicans [2], > 32 µg/mL; in the experiment on Candida albicans [4], >50 µg.
Turning to `CC1(C)CCC[C@]2(C)c3c(O)c(O)c4ccoc(=O)c4c3CC[C@@H]12`, the values for the MIC in the experiment on Candida albicans [1] and against Candida albicans [2] were 50 µg/mL (≈ 152 µM) and > 32 µg/mL, respectively.
Take `COc1c(O)c2c(c3c(=O)occc13)CC[C@H]1C(C)(C)CCC[C@]21C`: the MIC in the experiment on Candida albicans [1] is > 50 µg/mL; in the experiment on Candida albicans [2], > 32 µg/mL; against Candida albicans [4], >50 µg.
On the same counts, the results for `COc1ccc(-c2coc3cc(O)c(OC)cc3c2=O)cc1` [CASTANIN] are > 50 µg/mL, > 32 µg/mL and >50 µg.
In the case of `COc1c(O)c2c(c3c1[C@@H](CO)OC3=O)CC[C@H]1C(C)(C)C(=O)CC[C@]21C`, the MIC is > 50 µg/mL against Candida albicans [1], >50 µg in the experiment with Candida albicans [3], > 32 µg/mL against Candida albicans [2] and >50 µg against Candida albicans [4].
Take `COc1c(O)c2c(c3c1CCOC3=O)CC[C@H]1C(C)(C)C(=O)CC[C@]21C`: the MIC against Candida albicans [1] is > 50 µg/mL; against Candida albicans [3], >50 µg; against Candida albicans [2], > 32 µg/mL; in the experiment on Candida albicans [4], >50 µg.
With `COc1c(O)c2c(c3c(=O)occc13)CC[C@H]1C(C)(C)C(=O)CC[C@]21C`, the MIC was > 50 µg/mL in the experiment on Candida albicans [1], 10 µg in the experiment with Candida albicans [3], > 32 µg/mL in the experiment on Candida albicans [2] and >50 µg with Candida albicans [4].
`CC1(C)CCC[C@]2(C)c3c(O)c(O)c4c(c3C=C[C@@H]12)C(=O)O[C@@H]4CO`: the MIC against Candida albicans [1] was 50 µg/mL (≈ 145 µM); in the experiment on Candida albicans [3], >50 µg; against Candida albicans [2], > 32 µg/mL; in the experiment on Candida albicans [4] it was >50 µg.
Take `COc1c(O)c2c(c3c1[C@H](O)COC3=O)CC[C@H]1C(C)(C)CCC[C@]21C`: the MIC against Candida albicans [1] was found to be 50 µg/mL (≈ 139 µM); in the experiment on Candida albicans [3] it was 5 µg; with Candida albicans [2] it was 32 µg/mL (≈ 88.8 µM); in the experiment with Candida albicans [4], 2 µg.
On the same counts, the results for `COc1c(O)c2c(c3c1CCOC3=O)CC[C@H]1C(C)(C)CCC[C@]21C` are > 50 µg/mL, >50 µg, > 32 µg/mL and >50 µg.
Consider `C[C@H]1C(CCO)=C(O)C(=O)[C@H]2[C@H]1CC[C@H]1C(C)(C)CCC[C@]21C`, for which the MIC against Candida albicans [1] was > 50 µg/mL; in the experiment on Candida albicans [3] it was <20 µg; with Candida albicans [2], > 32 µg/mL.

Source of the values: ChEMBL document CHEMBL3763141, “Anti-Candida Cassane-Type Diterpenoids from the Root Bark of Swartzia simplex” (2015).
